# Results reported in paper PMC3389674, “Comparison of Soluble Guanylate Cyclase Stimulators and Activators in Models of Cardiovascular Disease Associated with Oxidative Stress” (Frontiers in Pharmacology, 2012).
# Tests used:
# [1] = tested on: all other proteins tested (human enzymes, ion channels, transporters, and G-protein-coupled receptors); experiment: in vitro selectivity profile: cell-based functional assays, other non-sGC proteins
# Method: The secondary pharmacological profile (i.e., sGC-independent activity) of GSK2181236A was assessed in cell-based functional assays by characterizing the interaction between GSK2181236A and 38 distinct human enzymes, ion channels, transporters, and G-protein-coupled receptors including 5-HT (5-HT1B/2A/2C/3), 5-HT transporter (SERT), adenosine (A2a), adrenergic (α1B/2C, β2), Aurora B kinase, cycoloxygenase-2 (COX-2), CaV1.2, cytochrome P450 (CYP2C19, 2D6, and 3A4), dopamine (D2), dopamine transporter (DAT), gamma-aminobutyric acid (GABAA), glycogen synthase kinase-3 (GSK3β) histamine (H1), KV1.5, KV7.1, KV11.1, lymphocyte-specific protein tyrosine kinase (LCK), L-monoamine oxidase (MAO-B) muscarinic (M1/2), NaV1.5, nicotinic (α1 nAChR), noradrenaline transporter (NET), opioid (κ, μ), organic anion transporting polypeptide C (OATP1B1), phosphodiesterase 5 (PDE5), phosphatidylinositol 3-kinase (PI3Kγ), pregnane X receptor (PXR), tachykinin (NK1), and vasopressin (V1a).
# WKY rat isolated aorta = experiment: vasodilation of phenylephrine-contracted WKY rat isolated aorta with and without ODQ
# Method: Male Wistar Kyoto (WKY; Charles River Laboratories, Inc., Raleigh, NC, USA) were anesthetized with inhaled isoflurane (5% in O2) and euthanized by exsanguination. Thoracic aorta was isolated, cleaned of adherent tissue, cut into 3 mm rings, and suspended in 10 mL organ baths containing Krebs–Henseleit buffer (KHB) of the following composition (mM): NaCl, 112.0; KCl, 4.7; KH2PO4, 1.2; MgSO4, 1.2; CaCl2, 2.5; NaHCO3, 25.0; glucose, 11.0. KHB was maintained at 37°C and aerated with 95%O2:5%CO2 (pH 7.4). Changes in isometric force were measured under 1g optimal resting tension using MLT0201/D force-displacement transducers (Letica, Barcelona, Spain) and recorded digitally (Chart 5.0 software, ADInstruments, Colorado Springs, CO, USA). After a 1 h equilibration period, each tissue was contracted to equilibrium with 60 mM KCl, washed with KHB and allowed to relax to the resting tension. The 60 mM KCl contraction was repeated and subsequent contractile responses were normalized to this second KCl response. Each tissue was then contracted to equilibration with 1 μM phenylephrine, washed with KHB and allowed to relax to the resting tension. In order to further investigate the mechanism by which BAY 60-4552 and GSK2181236A were modulating sGC function, the vasodilatory effects of both compounds were assessed in the presence and absence of ODQ, a heme-site inhibitor of sGC. Following a 20 min pre-treatment with DMSO vehicle (0.1% final concentration, v/v) or ODQ (10 μM), aortae were contracted with 0.3 μM phenylephrine (an approximate EC80 concentration). Once the contractile response to phenylephrine reached a plateau (∼10 min), contractile tone was reversed by adding cumulative concentrations of BAY 60-4552 or GSK2181236A to the tissue baths at log increments (0.1 nM to 10 μM).
# SHR-SP = experiment: chronic treatment of SHR-SP on high salt/fat diet: survival, blood pressure, renal and cardiac function; assay type: in vivo, rat; settings: for CO (cardiac output) / EDV (end diastolic volume) / EF (ejection fraction) / ESV (end systolic volume) / SV (stroke volume) / LVM/BW (left ventricular mass to body weight ratio): echocardiography after 7 weeks of HSFD; for LVM/BW (left ventricular mass to body weight ratio): HSFD control 3.08 ± 0.06; for survival rate: HSFD control 14%; for MAP: HSFD control 192 ± 10; for effect on MAP compared to the HSFD controls: lower doses: 0.1 mg/kg/day GSK2181236A, 0.3 mg/kg/day BAY 60-4552; for urine output: HSFD control 111 ± 21
# Source text: The SHR-SP is an established model of genetic hypertension. […] As such, a cohort of HSFD SHR-SP was established as a model of cardiovascular disease associated with chronic oxidative stress in this study.
# A subgroup of animals (n = 45) was anesthetized with isoflurane and surgically implanted with radiotelemetry transmitters (PhysioTel PA-C40, Data Sciences International, St. Paul, MN, USA). The transmitter catheter was threaded through the femoral artery into the abdominal aorta. At 11–12 weeks of age, baseline blood pressure and heart rate were measured for 5 days (10 s recordings every 5 min) in normal caging, then rats were acclimated to metabolic caging for a minimum of 48 h before a basal 24 h urine sample and blood were collected. […] The ND group was maintained on normal chow and water throughout the study. […] Rats displaying signs of morbidity which included piloerection, lack of grooming, persistent body weight loss, lethargy, or seizure/convulsions, were promptly euthanized.
# Treatments were administered in respective diets starting 1 week after the initiation of HSFD. Urine collections were repeated on weeks 2, 4, 6, and 8 and blood was sampled in the morning after each 24 h collection period for assessment of renal function. Plasma creatinine and urine sodium, microalbumin (MALB), and creatinine were ascertained using an AU640 Chemistry Analyzer (Olympus America, Inc., Center Valley, PA, USA). Plasma compound concentrations were determined as described above.
# During week 7, cardiac function and morphometry were evaluated via transthoracic echocardiography. Rats were anesthetized with isoflurane (2–4% induction and 1–3% maintenance). Two-dimensional gray scale images of the left ventricle were obtained in the short axis plane at mid-ventricle level and in the parasternal long axis plane using a GE Vivid 7 system (GE Medical Systems, Milwaukee, WI, USA) and stored as digital cineloops. Pulse wave Doppler recordings from the LV outflow were obtained to determine heart rate. All images were analyzed by a single observer using a GE EchoPac (GE Medical Systems, Milwaukee, WI, USA). LV volumes were calculated as V=5/6(LVA×LVL) where LVA is area of LV chamber from the short axis view and LVL is the LV length from the long axis view at end diastole and end systole. […] Analysis was performed on three to five cardiac cycles.
structure (smiles),measurement,setting,value
"Cc1cc(-c2ccc(OC(F)(F)F)cc2)ccc1COc1ccccc1-c1cccc(-n2ncc(C(=O)O)c2C(F)(F)F)n1 [GSK2181236A, 1-(6-{2-[({3-methyl-4′-[(trifluoromethyl)oxy]-4-biphenylyl}methyl)oxy]phenyl}-2-pyridinyl)-5-(trifluoromethyl)-1H-pyrazole-4-carboxylic acid]",Interactions (EC50s or IC50s) at all other proteins tested,[1],≥ 2500 nM
same,interaction with sGC more potent than any other non-sGC protein tested,[1]; cell-based assays,at least 23 fold
same,selectivity for sGC over all other tested proteins,[1]; vs P-VASP EC50 12.7 nM,≥ 197 fold
same,increase of vasodilatory response by ODQ,"WKY rat isolated aorta; 0.1 μM compound, ODQ 10 μM",41%
same,increase of vasodilatory response by ODQ,"WKY rat isolated aorta; 1 μM compound, ODQ 10 μM",36%
same,increase of vasodilatory response by ODQ,WKY rat isolated aorta; 10 μM compound,21%
same,reduction of MAP compared to HSFD controls,"SHR-SP; 1.0 mg/kg/day for 7 week, not significant",9 mmHg
same,MALB excretion vs HSFD controls,SHR-SP; 0.1 and 1.0 mg/kg/day,did not alter
same,sodium excretion vs HSFD controls,SHR-SP; 0.1 and 1.0 mg/kg/day,did not alter
same,urine output vs HSFD controls,SHR-SP; 0.1 and 1.0 mg/kg/day,did not alter
same,CO (cardiac output),SHR-SP; HSFD + 0.1 mg/kg/day,76 ± 7 mL/min
same,EDV (end diastolic volume),SHR-SP; HSFD + 0.1 mg/kg/day,331 ± 29 µL
same,EF (ejection fraction),SHR-SP; HSFD + 0.1 mg/kg/day,67 ± 2%
same,ESV (end systolic volume),SHR-SP; HSFD + 0.1 mg/kg/day,110 ± 11 µL
same,SV (stroke volume),SHR-SP; HSFD + 0.1 mg/kg/day,222 ± 19 µL
same,LVM/BW (left ventricular mass to body weight ratio),SHR-SP; HSFD + 0.1 mg/kg/day,2.69 ± 0.08 mg/g
same,CO (cardiac output),SHR-SP; HSFD + 1.0 mg/kg/day,80 ± 5 mL/min
same,EDV (end diastolic volume),SHR-SP; HSFD + 1.0 mg/kg/day,332 ± 22 µL
same,EF (ejection fraction),SHR-SP; HSFD + 1.0 mg/kg/day,71 ± 1%
same,ESV (end systolic volume),SHR-SP; HSFD + 1.0 mg/kg/day,98 ± 10 µL
same,SV (stroke volume),SHR-SP; HSFD + 1.0 mg/kg/day,234 ± 14 µL
same,LVM/BW (left ventricular mass to body weight ratio),SHR-SP; HSFD + 1.0 mg/kg/day,2.82 ± 0.07 mg/g
same,survival,"SHR-SP; HSFD, 0.1 mg/kg/day for 7 week",did not improve survival
same,survival rate,"SHR-SP; HSFD, 1.0 mg/kg/day for 7 week",69%
same,MAP,"SHR-SP; HSFD, 1.0 mg/kg/day for 7 week",183 ± 7 mmHg
same,effect on MAP compared to the HSFD controls,SHR-SP,did not have any effect on MAP
COC(=O)Nc1c(N)nc(-c2nn(Cc3ccccc3F)c3ncccc23)nc1N [BAY 60-4552],reduction of vasodilatory response by ODQ,"WKY rat isolated aorta; 0.1 μM compound, ODQ 10 μM",48%
same,reduction of vasodilatory response by ODQ,"WKY rat isolated aorta; 1 μM compound, ODQ 10 μM",30%
same,reduction of MAP compared to HSFD controls,"SHR-SP; 3 mg/kg/day for 7 weeks, P > 0.05",17 mmHg
same,CO (cardiac output),SHR-SP; HSFD + 0.3 mg/kg/day,86 ± 6 mL/min
same,EDV (end diastolic volume),SHR-SP; HSFD + 0.3 mg/kg/day,356 ± 21 µL
same,EF (ejection fraction),SHR-SP; HSFD + 0.3 mg/kg/day,69 ± 2%
same,ESV (end systolic volume),SHR-SP; HSFD + 0.3 mg/kg/day,111 ± 11 µL
same,SV (stroke volume),SHR-SP; HSFD + 0.3 mg/kg/day,245 ± 14 µL
same,LVM/BW (left ventricular mass to body weight ratio),SHR-SP; HSFD + 0.3 mg/kg/day,3.06 ± 0.07 mg/g
same,CO (cardiac output),SHR-SP; HSFD + 3.0 mg/kg/day,89 ± 6 mL/min
same,EDV (end diastolic volume),SHR-SP; HSFD + 3.0 mg/kg/day,379 ± 21 µL
same,EF (ejection fraction),SHR-SP; HSFD + 3.0 mg/kg/day,67 ± 1%
same,ESV (end systolic volume),SHR-SP; HSFD + 3.0 mg/kg/day,120 ± 9 µL
same,SV (stroke volume),SHR-SP; HSFD + 3.0 mg/kg/day,259 ± 13 µL
same,LVM/BW (left ventricular mass to body weight ratio),SHR-SP; HSFD + 3.0 mg/kg/day,2.85 ± 0.10 mg/g
same,survival rate,"SHR-SP; HSFD, 0.3 mg/kg/day for 7 week",46%
same,urine output,"SHR-SP; HSFD, 0.3 mg/kg/day for seven weeks",79 ± 11 mL/day
same,survival rate,"SHR-SP; HSFD, 3 mg/kg/day for 7 week",69%
same,MAP,"SHR-SP; HSFD, 3 mg/kg/day for 7 weeks",175 ± 1 mmHg
same,urine output,"SHR-SP; HSFD, 3.0 mg/kg/day for seven weeks",56 ± 10 mL/day
same,sodium excretion,"SHR-SP; HSFD, 3.0 mg/kg/day, HSFD control 26.4 ± 2.2",16 ± 2 mmol/day
same,MALB excretion,"SHR-SP; HSFD, 3.0 mg/kg/day, HSFD control 282.4 ± 20.2",142 ± 42 mg/day
same,effect on MAP compared to the HSFD controls,SHR-SP,did not have any effect on MAP
